Experimental data published in patent US20100048686A1, “Perfume Composition For Temperature Sense Control, Sense Control Article, Sense Control Method, And Perfume Map” (SHISEIDO CO., LTD., priority 2003, published 2010).

Experiments:
Assay type in all cases: in vivo, human
test subjects [1] = assay: cream temperature sense and usability/skin feel with scented cotton versus no aroma; design: key to Absorption into skin / Youthfulness of skin / Stickiness of skin: five-point scale, 5 = I agree to 1 = I disagree; details: for effect on temperature sense (raising or lowering) / perceived usability/skin feel, heavy-spreading or light-spreading / perceived usability/skin feel, moist or fresh: result in words; for Skin tightness / Absorption into skin / Cream spreading (heavy) / Cream spreading (light) / Firmness of skin / Non-stickiness of skin / Plumpness of skin / Skin freshness / Skin moistness / Skin smoothness / Skin suppleness / Stickiness of skin / Thickness of cream / Youthfulness of skin / Cream temp. sense (warm) / Cream temp. sense (cold): average; for Skin tightness: five-point scale 5 (I agree) to 1 (I disagree); for Absorption into skin / Cream spreading (heavy) / Cream spreading (light) / Firmness of skin / Non-stickiness of skin / Plumpness of skin / Skin freshness / Skin moistness / Skin smoothness / Skin suppleness / Stickiness of skin / Thickness of cream / Youthfulness of skin: five-point scale 5 to 1; for Cream temp. sense (warm): five-point scale 5 warm to 1 cold; for Cream temp. sense (cold): five-point scale, unscented cream, aroma smelled from cotton
Experimental: Just as with the survey conducted for temperature sense above, 17 or 18 women 20 to 24 years of age were selected for this test, cotton to which no perfume had been applied was affixed to one arm, and cotton to which perfume had been applied was affixed to the other arm, the arms were each coated with an unscented cream while the subjected smelled the aroma of the cotton, and the subjectively sensed temperature of the cream was assessed on a five-point scale in which 5 was warm, 4 was somewhat warm, 3 was “can't say,” 2 was somewhat cold, and 1 was cold.
Next, the correlation of aroma-induced cosmetic temperature sense, usability, and how the cosmetic actually felt on the skin, and the correlation with the image of the aroma were tested for the above-mentioned 24 different raw material perfumes. […] The aroma image was assessed on a seven-point scale from 0 to 6, while the usability/skin feel was assessed on a five-point scale from 5 (“I agree”) to 1 (“I disagree”). In addition to assessing usability, the impression of the aroma of the perfume was also assessed at the same time. To prevent the perfume from modifying the cream, a method was employed in which the perfume component was not directly added to the cream, but was instead applied to the cotton and smelled.
The following wording was selected for usability/skin feel. • How well a cream spreads: light to heavy • Absorption into the skin: fast to slow • Makes the skin look youthful?: yes to no • Makes the skin feel sticky?: yes to no • Makes the skin feel fresh?: yes to no • Makes the skin feel moist?: yes to no • Makes the skin feel non-sticky?: yes to no • Makes the skin feel smooth?: yes to no • Makes the skin feel supple?: yes to no • Makes the skin feel tight?: yes to no • Each of these was assessed on a five-point-scale. • For impressions of aroma, words that readily express the characteristics of an aroma, and four different words (natural, rich, tender, and sharp) were selected as generic terms from among sensory adjectives and emotional adjectives used to express the five senses. Each generic term encompasses specific aroma impression words. For example, “natural” encompasses impression expressions such as transparent, bright, natural, [3] pure, etc.; “rich” encompasses thick, sultry, mature, glossy, sexy, etc.; “tender” encompasses mild, sweet, gentle, graceful, etc; and “sharp” encompasses bracing, sharp, cool, etc. […] However, the words used to express usability/skin feel and the words used to express impressions of aroma are nothing more than examples, and [the present invention] is not limited to or by these words.

test subjects [2] = assay: subjectively sensed temperature of constant-temperature water on the hands while smelling an aroma; details: 28° C. water, seven-point scale 7 hot to 1 extremely cold, 12 test subjects
Experimental: As a result of various research, the inventors discovered that the aroma given off by a specific perfume component can change the temperature subjectively sensed by a person (temperature sense). 12 test subjects put there hands into water held at a constant temperature, and the subjectively sensed temperature of the water was assessed on a seven-point scale in which 7 was hot, 6 was warm, 5 was somewhat warm, 4 was “can't say,” 3 was somewhat cold, 2 was cold, and 1 was extremely cold. The same 12 test subjects were asked to smell a peppermint aroma while once again putting their hands into water held at a constant temperature, and the subjectively sensed temperature of the water was assessed on a seven-point scale. The same experiment was repeated by raising the water temperature one degree at a time, and the testers looked for the temperature at which the assessment given under conditions of smelling the peppermint aroma was the same as the assessment given under conditions of no aroma at 28° C. […]
Also, to examine the change in temperature sense with and without aroma, the 12 test subjects put their hands in water with a temperature of 28° C., and the subjectively sensed temperature was assessed on a seven-point scale in the same manner as above. […]

test subjects [3] = assay: moisture content of the cheeks (corneometer) with scented cotton under nostrils; details: room temperature 23 degrees, humidity 46%
Experimental: (§1) 12 female test subjects 20 to 24 years of age were asked to wash their face and attach a piece of scented cotton under their nostrils, which was left alone for a few minutes at a room temperature of 23 degrees and a humidity of 46%, after which the moisture content (corneometer) and sebum content (sebumeter) of the cheeks were measured.

test subjects [4] = assay: temperature sense of a space (clear boxes with and without aroma); details: face put into box with aroma versus box without; FIG. 7; result in words
Source text: Also, it is possible to change the temperature sense of a person located in a specific space by dispersing in that space, by volatilization or another such means, a perfume composition containing the above-mentioned perfume component capable of changing a person's temperature sense, and having the person smell the aroma. To test this, a clear box containing scented paper and another clear box containing unscented paper were readied, and an experiment was conducting by having a test subject put his or her face into each of the boxes and compare the temperature sense of the space. […] FIG. 5 is a graph of the assessment results, and it can be seen that the temperature sense of a person located in a space can be changed by aroma. When the perfume composition is dispersed in the space so that the person will smell it, the concentration of the aroma is preferably about 0.01 to 10 ppm. With peppermint oil, for instance, about 0.4 ppm is favorable. […] The test subject put his or her face into first one box and then the other and compared the temperature sense of the space. This experiment was conducted for three different aromas, namely, peppermint, bergamot, and vanillin. A lid 6 that could be opened and closed was provided to the top of each of the boxes 1 and 2. The test subjects and experiment conditions were the same as discussed above. […]

test subjects [5] = assay: sebum content of the cheeks (sebumeter) with scented cotton under nostrils; details: room temperature 23 degrees, humidity 46%
Experimental: as §1

CC1(C)CCCC2(C)C1CCC1(C)OCCC12 (stereo not drawn) [3α,6,6,9α-tetramethyldodecahydronaphtho[2,1-b]furan]
effect on temperature sense (raising or lowering) (test subjects [1]): capable of raising temperature sense | perceived usability/skin feel, heavy-spreading or light-spreading (test subjects [1]): light-spreading usability/skin feel | perceived usability/skin feel, moist or fresh (test subjects [1]): moist usability/skin feel

Cc1ccc2c(c1)OCC(=O)CO2 [7-methyl-3,4-dihydro-(2H)-1,5-benzodioxepin-3-one]
effect on temperature sense (raising or lowering) (test subjects [1]): capable of lowering temperature sense | perceived usability/skin feel, heavy-spreading or light-spreading (test subjects [1]): light-spreading usability/skin feel | perceived usability/skin feel, moist or fresh (test subjects [1]): fresh usability/skin feel

CC1=CC(C)C(C=O)CC1 (centres unmarked) [E, 2,4-dimethyl-3-cyclohexenyl carboxyaldehyde]
Skin tightness (test subjects [1]): 2.4 | Absorption into skin (test subjects [1]): 2.9 | Cream spreading (heavy) (test subjects [1]): 2.7 | Cream spreading (light) (test subjects [1]): 3.3 | Firmness of skin (test subjects [1]): 2.8 | Non-stickiness of skin (test subjects [1]): 2.6 | Plumpness of skin (test subjects [1]): 2.3 | Skin freshness (test subjects [1]): 3.1 | Skin moistness (test subjects [1]): 3.3 | Skin smoothness (test subjects [1]): 3.8 | Skin suppleness (test subjects [1]): 3.4 | Stickiness of skin (test subjects [1]): 3.2 | Thickness of cream (test subjects [1]): 3.1 | Youthfulness of skin (test subjects [1]): 3.7 | Cream temp. sense (warm) (test subjects [1]): 2.5 | Cream temp. sense (cold) (test subjects [1]): 3.5 | effect on temperature sense (raising or lowering) (test subjects [1]): capable of lowering temperature sense | perceived usability/skin feel, heavy-spreading or light-spreading (test subjects [1]): light-spreading usability/skin feel | perceived usability/skin feel, moist or fresh (test subjects [1]): fresh usability/skin feel

CC1COCc2cc3c(cc21)C(C)(C)C(C)C3(C)C (centres unmarked) [4,6,6,7,8,8-hexamethyl-1,3,4,6,7,8-hexahydrocyclopentabenzopyran]
effect on temperature sense (raising or lowering) (test subjects [1]): capable of raising temperature sense | perceived usability/skin feel, heavy-spreading or light-spreading (test subjects [1]): light-spreading usability/skin feel | perceived usability/skin feel, moist or fresh (test subjects [1]): moist usability/skin feel

CC(C)[C@@H]1CC[C@@H](C)C[C@H]1O [L-menthol]
subjectively sensed temperature of the water, average assessment (test subjects [2]): 4.125

O=Cc1ccc2c(c1)OCO2 [heliotropine]
effect on temperature sense (raising or lowering) (test subjects [1]): capable of raising temperature sense | perceived usability/skin feel, heavy-spreading or light-spreading (test subjects [1]): light-spreading usability/skin feel | perceived usability/skin feel, moist or fresh (test subjects [1]): moist usability/skin feel

L-carvone
subjectively sensed temperature of the water, average assessment (test subjects [2]): 4

COc1cc(C=O)ccc1O [C, vanillin]
Moisture content (test subjects [3]): 69.3 (increase) | Cream spreading (heavy) (test subjects [1]): 3.1 | Cream spreading (light) (test subjects [1]): 2.9 | Thickness of cream (test subjects [1]): 2.8 | Cream temp. sense (warm) (test subjects [1]): 4.1 | Cream temp. sense (cold) (test subjects [1]): 1.9 | effect on temperature sense (raising or lowering) (test subjects [1]): capable of raising temperature sense | sense of warmth or cold inside the box (test subjects [4]): gave a warm sensation | Sebum content (test subjects [5]): no difference attributable to aroma

CC(=O)/C=C/C1=C(C)CCCC1(C)C [β-ionone]
effect on temperature sense (raising or lowering) (test subjects [1]): capable of raising temperature sense | perceived usability/skin feel, heavy-spreading or light-spreading (test subjects [1]): light-spreading usability/skin feel | perceived usability/skin feel, moist or fresh (test subjects [1]): moist usability/skin feel

CCCCCCCC1CCC(=O)O1 (centres unmarked) [G, γ-undecalactone]
Cream spreading (heavy) (test subjects [1]): 2.2 | Cream spreading (light) (test subjects [1]): 3.8 | Thickness of cream (test subjects [1]): 2.1 | Cream temp. sense (warm) (test subjects [1]): 3.2 | Cream temp. sense (cold) (test subjects [1]): 2.8 | effect on temperature sense (raising or lowering) (test subjects [1]): capable of raising temperature sense

CC(C=O)Cc1ccc(C(C)(C)C)cc1 (stereo not drawn) [B, 4-tert-butyl-α-methylhydroxycinnamic aldehyde]
Skin tightness (test subjects [1]): 3.3 | Absorption into skin (test subjects [1]): 3.5 | Cream spreading (heavy) (test subjects [1]): 2.2 | Cream spreading (light) (test subjects [1]): 3.8 | Firmness of skin (test subjects [1]): 2.9 | Non-stickiness of skin (test subjects [1]): 2.5 | Plumpness of skin (test subjects [1]): 2.2 | Skin freshness (test subjects [1]): 3.2 | Skin moistness (test subjects [1]): 3.9 | Skin smoothness (test subjects [1]): 3.8 | Skin suppleness (test subjects [1]): 3.4 | Stickiness of skin (test subjects [1]): 3.1 | Thickness of cream (test subjects [1]): 2.5 | Youthfulness of skin (test subjects [1]): 3.8 | Cream temp. sense (warm) (test subjects [1]): 3.4 | Cream temp. sense (cold) (test subjects [1]): 2.6 | effect on temperature sense (raising or lowering) (test subjects [1]): capable of raising temperature sense | perceived usability/skin feel, heavy-spreading or light-spreading (test subjects [1]): light-spreading usability/skin feel | perceived usability/skin feel, moist or fresh (test subjects [1]): moist usability/skin feel

Cc1occc(=O)c1O [maltol]
effect on temperature sense (raising or lowering) (test subjects [1]): capable of raising temperature sense

COC(=O)c1ccccc1N=CCC(C)CCCC(C)(C)O (centres unmarked) [methyl-N-3,7-dimethyl-7-hydroxyoctylidene-anthranilate]
effect on temperature sense (raising or lowering) (test subjects [1]): capable of lowering temperature sense | perceived usability/skin feel, heavy-spreading or light-spreading (test subjects [1]): heavy-spreading usability/skin feel | perceived usability/skin feel, moist or fresh (test subjects [1]): fresh usability/skin feel
